Test results: US5439933A (priority 1993, dated 1995)
pIC50: −log10 of the molar value. In brackets after ≈: the same amount, converted by molar mass.

Tests used:
[1] = tested on: COLO-201 human colon adenocarcinoma cells; experiment: Cell proliferation assay (cell counts), COLO-201; format: cell-based; conditions: Table 5, 72 hours
Experimental: (§1) Tolytoxin and the other new scytophycin compounds are potent anticancer and antifungal agents. The cytotoxicity of tolytoxin and other new scytophycin compounds was determined using a cell proliferation assay, which tested the effect of the compounds on increases in cell numbers.
(§2) Cell lines were grown in plastic dishes (Falcon) in Eagle's basal medium supplemented with 5% newborn calf serum (KB), Fisher's medium supplemented with 10% horse serum (L1210), Dulbecco's modified Eagle's medium supplemented with 5% heat-inactivated fetal calf serum (LoVo), minimal essential medium supplemented with 2% heat-inactivated chicken serum (HEp-2), RPMI-1640 supplemented with 10% heat-inactivated fetal calf serum (T-47D, COLO-201) or 20% heat-inactivated fetal calf serum (HL-60, KATO-III), or McCoy's 5A supplemented with 10% heat-inactivated fetal calf serum (HBL-100). All cell culture media were supplemented with 50 μg/ml gentamycin sulfate. The cultures were incubated at 37° C. in a humidified atmosphere containing 5% carbon dioxide.
(§3) Cultures were exposed to graded concentrations of tolytoxin and reincubated for 72 hours in the presence of tolytoxin. […] Cell numbers were determined by hemacytometer counts. The IC50 for each cell line was determined by plotting the logarithm of the tolytoxin concentration versus growth (cell number as a percentage of the control) of the treated cells.

[2] = tested on: LoVo human adenocarcinoma cells; experiment: Cell proliferation assay (cell counts), LoVo; format: cell-based; conditions: 72 h
Experimental: as §1, §2
(§4) Cultures were exposed to graded concentrations of tolytoxin and reincubated for 72 hours in the presence of tolytoxin. Three dishes were used for each treatment. Cell numbers were determined by hemacytometer counts. The IC50 for each cell line was determined by plotting the logarithm of the tolytoxin concentration versus growth (cell number as a percentage of the control) of the treated cells.
(§5) The other new scytophycin compounds are also potent cytotoxins. For example, the IC50 of the scytophycins against KB human epidermoid carcinoma, LoVo human adenocarcinoma, and L1210 murine leukemia were determined using the cell proliferation assay described for tolytoxin.

[3] = tested on: Murine leukemia (L1210) cells; experiment: Polynucleation / DNA content by flow cytometry; format: cell-based; conditions: 10 nM
Experimental: The following procedure employs new scytophycins to produce polynucleated mammalian cells. Murine leukemia (L1210) cells at a density of 1×10^5 cells/mL were treated with tolytoxin for periods ranging from 4 to 24 hours. Tolytoxin or the appropriate vehicle as a control was added in a volume of not more than 4.2 μL per 10 mL of cell suspension. The cell suspension was incubated at 37° C. in a humidified atmosphere of 95% air, 5% carbon dioxide. At the conclusion of the incubation, the cultures were chilled on ice and centrifuged at 200×g (gravity) for 10 minutes. The pelleted cells were fixed in 70% ethanol: 30% water for 1 hour. Aliquots of the fixed cell suspensions were washed twice with 0.01M phosphate buffered saline, pH 7.2-7.4. The cells were resuspended at approximately 1×10^6 /mL in modified Krishan's reagent (Krishan, 1975) containing 0.005% propidium iodide, ribonuclease A at 50 units/mL, 0.1% sodium citrate, and 0.3% Nonidet P-40. Following a 30 minute incubation at 4° C. the cell suspensions were passed 4 times through a 26-gauge needle before analysis on a Coulter Epics C flow cytometer, equipped with an Innova 90 argon laser tuned at 488 nm and set at 200 milliwatts. The fluorescence of 10,000 cells was used to generate the DNA histograms.

[4] = tested on: SKVLB (multi-drug resistant subline of SKOV3); experiment: cells; format: cell-based, Human
[5] = tested on: Colletotrichum coccodes 1809; experiment: Antifungal agar dilution; format: cell-based; conditions: Colletotrichum coccodes, 1809, 48 h
Experimental: (§6) The new scytophycins are also useful as antifungal agents. Antimicrobial activity was determined by the agar dilution method. Tolytoxin was dissolved in 95% ethanol for addition to cooled, molten agar. Nystatin was solubilized in DMSO and diluted in distilled water. Appropriate solvent controls were also prepared. Fungal cultures were grown on Saboraud dextrose agar. Assay plates were incubated for 48 hours post-inoculation. Yeasts and filamentous fungi were incubated at 25° C.

Bipolaris incurvata 2118 = experiment: Antifungal agar dilution; format: cell-based; conditions: Bipolaris incurvata, 2118, 48 h
Experimental: as §6

Sclerotium rofsii 2133 = experiment: Antifungal agar dilution; format: cell-based; conditions: 48 h
Experimental: as §6
(§7) Activity was determined using the method described above for tolytoxin.

[6] = tested on: Thielaviopsis paradoxa 1215; experiment: Antifungal agar dilution; format: cell-based; conditions: Thielaviopsis paradoxa, 1215, 48 h
Experimental: as §6, §7

[7] = tested on: Phytophthora nicotianae H729; experiment: Antifungal agar dilution; format: cell-based; conditions: Phytophthora nicotianae, 48 h
Experimental: as §6, §7

Candida albicans A26 = experiment: Antifungal agar dilution; format: cell-based; conditions: Candida albicans, A26, 48 h
Experimental: as §6, §7

Saccharomyces cerevisae = experiment: Antifungal agar dilution; format: cell-based; conditions: Saccharomyces, 48 h
Experimental: as §6, §7

[8] = tested on: Human ovarian carcinoma cells (SKOV3); experiment: cells; format: cell-based; conditions: SK-OV-3, 48 h, read-out: IC50 SKOV3
Experimental: Human ovarian carcinoma cells (SKOV3) and a subline made multi-drug resistant by slowly increasing vinblastine in the culture medium over the course of many passages (SKVLB) were grown in Earle's basal medium (BME) containing 10% fetal calf serum. The SKVLB cells were maintained in the presence of 1 µg/mL vinblastine. The multi-drug resistant cell line is resistant to adriamycin, vinblastine, actinomycin D, and colchicine.
Cell proliferation was estimated by measurement of protein content of the cultured cells, as described by Skehan et al. (1990). Cells were plated into 24-well plates at approximately 10% confluency in BME and were allowed to attach and recover for at least 24 hours. The cells were then treated with the scytophycins or appropriate control for 48 hours. After the incubation, the medium was removed from each well and cells fixed by addition of 10% (w/v) trichloroacetic acid (TCA) (4° C.). The cells were incubated at 4° C. for one hour and then washed five times with water to remove TCA. The TCA-fixed cells were then stained for 30 minutes with 0.4% (w/v) sulforhodamine B prepared in 1% acetic acid. Following the staining, the cell layers were washed four times with 1% acetic acid. The cell layer was dissolved in 10 mM unbuffered tris-hydroxymethylaminomethane base. Absorbance of the solution was determined at 564 nm. Antiproliferative activity is manifested as decreased production of cellular protein.

[9] = tested on: KATO-III human gastric carcinoma cells; experiment: Cell proliferation assay (cell counts), KATO-III; format: cell-based; conditions: Table 5, 72 hours
Experimental: as §1, §2, §3

[10] = tested on: HEp-2 human epidermoid carcinoma cells; experiment: Cell proliferation assay (cell counts), HEp-2; format: cell-based; conditions: Table 5, 72 hours
Experimental: as §1, §2, §3

[11] = tested on: KB human epidermoid carcinoma cells; experiment: Cell proliferation assay (cell counts), KB; format: cell-based; conditions: 72 h
Experimental: as §1, §2, §4, §5

[12] = Toxicity in mice, intraperitoneal; conditions: mouse, in vivo, ip, Swiss Webster mice
Experimental: In view of the cytotoxic effects observed with the new scytophycins, an experiment was performed to determine the toxicity level in an animal model. Various doses of tolytoxin were administered to Swiss Webster mice by the intraperitoneal route.

**Q.** Which results are given for `COC1CC2C=CCC(CC(OC)C3(CO3)C(OC)CC(OC)C(C)C(C(C)C(O)C(C)CCC(=O)C(C)C(OC)C(C)/C=C/N(C)C=O)OC(=O)/C=C/C(C)=C/C1O)O2` (stereo not shown) [Tolytoxin, 6-hydroxy-7-O-methylscytophycin B]?
**A.** pIC50 [1]: 9.28; pIC50 [2]: 8.08; multinucleated cells observed by microscopy ([3]; 4 to 24 hours): increasing numbers of multinucleated cells; proportion of cells in the G2 M phase ([3]; 4 to 24 hours): gradual increase; fraction of the cells with DNA contents greater than 4C ([3]; by 16 hours): approximately 1/3; pIC50 ([4]; Homo sapiens, SKVLB, 48 h, read-out: IC50 SKVLB): 7.60; Fold-Resistance ([4]; Table 7, SKVLB vs SKOV3, 2880 min): 1; MIC [5]: 4 nM (≈ 3.4 ng/mL); MIC (Bipolaris incurvata 2118): 2 nM (≈ 1.7 ng/mL); MIC (Sclerotium rofsii 2133): 1 nM (≈ 0.85 ng/mL); MIC [6]: 1 nM (≈ 0.85 ng/mL); MIC [7]: 4 nM (≈ 3.4 ng/mL); MIC (Candida albicans A26): 8 nM (≈ 6.8 ng/mL); MIC (Saccharomyces cerevisae): 4 nM (≈ 3.4 ng/mL); pIC50 [8]: 7.60; pIC50 [9]: 9.11; pIC50 [10]: 8.64; pIC50 [11]: 8.28; LD50 [12]: ~1.5 mg/kg
